The record followed here is ChEMBL document CHEMBL4673242, “Penithoketone and Penithochromones A-L, Polyketides from the Deep-Sea-Derived Fungus Penicillium thomii YPGA3” (J Nat Prod, 2020).

One experiment relates to RAW264.7. Put plainly: Inhibition of LPS-induced NO production in mouse RAW264.7 cells at 50 uM relative to control. The class given is functional.
The test system of experiment [1] is LNCaP C4-2B. Put plainly: Cytotoxicity against human enzalutamide-resistant LNCaP C4-2B cells assessed as reduction in cell viability at 50 uM after 72 hrs by MTT assay relative to control. The class given is functional. In general terms: Formazan colour is commonly taken as a measure of viable cells.
Experiment [2] relates to MCF7. Put plainly: Cytotoxicity against human MCF7 cells assessed as reduction in cell viability at 50 uM after 72 hrs by MTT assay relative to control. The class given is functional.
Experiment [3] has as its system MDA-MB-468. The experiment is described as follows: Cytotoxicity against human MDA-MB-468 cells assessed as reduction in cell viability at 50 uM after 72 hrs by MTT assay relative to control. It counts as functional.
Experiment [4] relates to LNCaP C4-2B. Put plainly: Cytotoxicity against human LNCaP C4-2B cells assessed as reduction in cell viability at 50 uM after 72 hrs by MTT assay relative to control. The class given is functional.
The subject of experiment [5] is LNCaP C4-2B. Put plainly: Cytotoxicity against human enzalutamide-resistant LNCaP C4-2B cells assessed as reduction in cell viability after 72 hrs by MTT assay. The class given is functional, cell-based.
Experiment [6] deals with LNCaP C4-2B. Put plainly: Cytotoxicity against human LNCaP C4-2B cells assessed as reduction in cell viability after 72 hrs by MTT assay. It counts as functional, cell-based.
The subject of experiment [7] is MDA-MB-468. Put plainly: Cytotoxicity against human MDA-MB-468 cells assessed as reduction in cell viability after 72 hrs by MTT assay. Particulars: MDA-MB-468, 72 h. It counts as functional, cell-based.
For experiment [8], the system named is MCF7. Put plainly: Cytotoxicity against human MCF7 cells assessed as reduction in cell viability after 72 hrs by MTT assay. The note with it: MCF7, 72 h. The class given is functional, cell-based.

For `COc1cc(OC)c2c(=O)cc(CCCCCCC(=O)O)oc2c1`, the inhibition (usually the relative decrease from the control value, in per cent) at 50 µM with RAW264.7 is under 30%. For the same molecule, the Activity in the experiment on LNCaP C4-2B [1], in the experiment with MCF7 [2], with MDA-MB-468 [3] and with LNCaP C4-2B [4] was under 30% each time.

In turn, `O=C(O)CCCCCCc1cc(=O)c2c(O)cc(O)cc2o1` showed an inhibition at 50 µM in the experiment on RAW264.7 of under 30%. Moreover, the Activity with LNCaP C4-2B [1], in the experiment with MCF7 [2], in the experiment on MDA-MB-468 [3] and in the experiment with LNCaP C4-2B [4] was under 30% in each case.

For `COC(=O)CCCCc1cc(=O)c2c(OC)cc(OC)cc2o1`, the inhibition at 50 µM in the experiment with RAW264.7 was under 30%. In addition, the Activity in the experiment on LNCaP C4-2B [1], in the experiment on MCF7 [2], in the experiment with MDA-MB-468 [3] and in the experiment with LNCaP C4-2B [4] was under 30% throughout.

Regarding `COC1=CC(=O)c2c(O)cccc2C1=O`, the inhibition at 50 µM in the experiment with RAW264.7 was under 30%. The IC50 (usually the point on the concentration scale where inhibition reaches its midpoint) in the experiment with LNCaP C4-2B [5] came to 13 µM; in the experiment with LNCaP C4-2B [6], 6.4 µM; in the experiment with MDA-MB-468 [7], 4.9 µM; with MCF7 [8], 11 µM. The Activity in the experiment with LNCaP C4-2B [1], with MCF7 [2], with MDA-MB-468 [3] and in the experiment on LNCaP C4-2B [4] was over 50% throughout.

In the case of `COC(=O)CCCCCCc1cc(=O)c2c(O)cc(O)cc2o1`, in the experiment on RAW264.7, the inhibition at 50 µM was under 30%. The Activity with LNCaP C4-2B [1], in the experiment on MCF7 [2], in the experiment on MDA-MB-468 [3] and with LNCaP C4-2B [4] was under 30% in each case.

In the case of `COc1cc(OC)c2c(=O)cc(CCCCC(=O)O)oc2c1`, the inhibition at 50 µM with RAW264.7 was under 30%. Besides, the Activity in the experiment on LNCaP C4-2B [1], in the experiment with MCF7 [2], with MDA-MB-468 [3] and in the experiment with LNCaP C4-2B [4] was under 30% throughout.

Turning to `COC(=O)CCCCCCc1cc(=O)c2c(OC)cc(O)cc2o1`, in the experiment with RAW264.7, the inhibition at 50 µM is under 30%. The Activity with LNCaP C4-2B [1], in the experiment with MCF7 [2], in the experiment with MDA-MB-468 [3] and with LNCaP C4-2B [4] was under 30% each time.

In the experiment on RAW264.7, `COC(=O)CCCCCCc1cc(=O)c2c(OC)cc(OC)cc2o1` came in with an inhibition at 50 µM of under 30%. For the same molecule, the Activity with LNCaP C4-2B [1], in the experiment with MCF7 [2], with MDA-MB-468 [3] and with LNCaP C4-2B [4] was under 30% throughout.

In the case of `COC1=C(O)C(=O)c2c(O)cccc2[C@@]1(OC)[C@@H](C)C1=CC(=O)OC1`, the inhibition at 50 µM in the experiment with RAW264.7 is under 30%. Also, the IC50 came to 14 µM with LNCaP C4-2B [5], 9.1 µM in the experiment with LNCaP C4-2B [6], 15 µM with MDA-MB-468 [7] and 21 µM with MCF7 [8]. Also, the Activity in the experiment with LNCaP C4-2B [1], with MCF7 [2], in the experiment with MDA-MB-468 [3] and with LNCaP C4-2B [4] was over 50% each time.

Turning to `COc1cc(OC)c2c(=O)cc(CCCC/C=C/C(=O)O)oc2c1`, the inhibition at 50 µM in the experiment with RAW264.7 was under 30%. The Activity in the experiment with LNCaP C4-2B [1], in the experiment with MCF7 [2], in the experiment with MDA-MB-468 [3] and with LNCaP C4-2B [4] was under 30% throughout.

Consider `COC1=C(O)C(=O)c2c(O)cccc2C1=O`, for which, in the experiment on RAW264.7, the inhibition at 50 µM was under 30%. Moreover, the IC50 in the experiment on LNCaP C4-2B [5] is over 50 µM; with LNCaP C4-2B [6], 41 µM; in the experiment with MDA-MB-468 [7], 38 µM; in the experiment with MCF7 [8], over 50 µM. In addition, the Activity in the experiment on LNCaP C4-2B [1], in the experiment on MCF7 [2], with MDA-MB-468 [3] and in the experiment with LNCaP C4-2B [4] was over 50% each time.

`COc1cc(O)c2c(=O)cc(CCCCCCC(=O)O)oc2c1`: the inhibition at 50 µM with RAW264.7 was under 30%. Also, the Activity in the experiment on LNCaP C4-2B [1], in the experiment on MCF7 [2], in the experiment with MDA-MB-468 [3] and with LNCaP C4-2B [4] was under 30% throughout.

In the experiment with RAW264.7, `COC(=O)CCc1cc(=O)c2c(OC)cc(OC)cc2o1` returned an inhibition at 50 µM of under 30%. The Activity with LNCaP C4-2B [1], with MCF7 [2], with MDA-MB-468 [3] and in the experiment on LNCaP C4-2B [4] was under 30% throughout.

`COC(=O)CCCc1cc(=O)c2c(OC)cc(O)cc2o1` returned an inhibition at 50 µM with RAW264.7 of under 30%. The Activity in the experiment with LNCaP C4-2B [1], in the experiment with MCF7 [2], in the experiment on MDA-MB-468 [3] and in the experiment with LNCaP C4-2B [4] was under 30% each time.

In turn, `COC(=O)CCCCCCc1cc(=O)c2c(O)cc(OC)cc2o1` showed an inhibition at 50 µM in the experiment with RAW264.7 of under 30%. Also, the Activity in the experiment on LNCaP C4-2B [1], in the experiment on MCF7 [2], in the experiment with MDA-MB-468 [3] and with LNCaP C4-2B [4] was under 30% in each case.
